The term IC50 denotes the concentration that inhibits the measured activity by half. As usually defined, the MIC is the lowest concentration found to suppress growth.

One assay has as its system P. mirabilis ATCC 12453. The experiment in a line: MIC, micro-dilution broth method. The format is cell-based, Proteus mirabilis. On the procedure:
(§1) Samples of complexes (about 20 mg) were digested in a concentrated mixture of 36% HCl (1 mL) and 65% HNO3 (6 mL). The contents of Cd (II) in the solid complexes were determined with an F-AAS spectrometer (Analytik Jena, contraAA 300, Jena, Germany) with a continuous source of light and using an air/acetylene flame (Analytik Jena, contraAA 300). Absorbances were measured at the analytical spectral lines at 228.8 nm for Cd (II). The limit of quantification was 0.004 mg/L for Cd (II). The solid samples were decomposed using an Anton Paar Multiwave 3000 (Graz, Austria) closed-system instrument. Mineralization was carried out for 45 min at 240 °C under a pressure of 60 bar. The contents of carbon, hydrogen, and nitrogen were determined with an instrument from Vario Micro Company Elementar Analysensysteme GmbH (Langenselbold, Germany). FTIR spectra were recorded with an IR Tracer-100 Schimadzu Spectrometer (4000–600 cm^−1 with an accuracy of recording of 1 cm^−1, Kyoto, Japan) using KBr pellets. The thermal analyses were carried out with a Netzsch STA 449 F1 Jupiter thermoanalyzer (Netzsch-Geratebau GmbH, Selb, Germany) coupled with a Netzsch Aeolos Quadro QMS 403 mass spectrometer (Netzsch-Geratebau GmbH, Selb, Germany). The samples were heated up to 1000 °C in corundum crucibles with a heating rate of 10 °C/min in an atmosphere of synthetic air (20% O2, 80% N2). The cytotoxic effects of the compounds were evaluated using glioblastoma (T98G), neuroblastoma (SK-N-AS), and lung adenocarcinoma (A549) cell lines and normal human skin fibroblasts (CCD-1059Sk). T98G and SK-N-AS cells were cultured in high-glucose DMEM and A549 cells were cultured in DMEM/F12, while CCD-1059Sk cells were cultured in MEM. All media were supplemented with 10% (FBS), 100 U/mL of penicillin, and […] of streptomycin (PenStrep). Cells were incubated at 37 °C in a humidified atmosphere of 5% CO2. Stock solutions were prepared by dissolving the compounds in sterile dimethyl sulfoxide (DMSO) to obtain a concentration of 50 mg/mL. The cells were seeded into sterile 96-well plates (Nunc) at a density of 1 × 10^5 cells/mL. After 24 h of incubation, the medium was removed from each well, and then the cells were incubated for the next 24 h with different concentrations of the tested compounds (1–100 µg/mL) in their respective media containing 2% FBS. The cytotoxicity of the compounds was evaluated using an MTT assay, which was based on the conversion of 3-(4,5-dimethylthiazol-2-yl)-2,5-diphenyltetrazolium bromide (MTT) into dark-blue formazan crystals. Briefly, after 24 h of incubation of the cells with varying concentrations of the tested compounds, all culture media were removed from the plates. The cells were washed with PBS, and then 100 µL of medium containing 10% MTT solution (5 mg/mL) was added to each well. After 3 h of incubation, 100 µL (per well) of 10% SDS buffer solution was added to solubilize the formazan crystals. After overnight incubation, the absorbance was measured at 570 nm using a microplate reader (Epoch, BioTek Instruments). Experiments were repeated twice, and the measurements in each experiment were run in triplicate. The viability of the investigated cells was expressed as the percentage of the viability of the untreated cells, and the results were transformed into IC50 values (expressed as mean ± SD). The complexes were screened for antibacterial and antifungal activity by using the micro-dilution broth method with Mueller–Hinton broth for the growth of bacteria or Mueller–Hinton broth with 2% glucose for the growth of fungi. […]
(In general: In broth dilution the organism is exposed to a series of concentrations in liquid medium.)

A further assay relates to E. coli ATCC 25922. The experiment in a line: MIC, micro-dilution broth method. In kind it is cell-based, Escherichia coli. Here is the method:
as §1

In the next assay the test system is P. aeruginosa ATCC 9027. The assay is described as follows: MIC, micro-dilution broth method. In kind it is cell-based, Pseudomonas aeruginosa. Here is the method: as §1
The next assay deals with T98G cells. The experiment in a line: MTT cytotoxicity assay, glioblastoma T98G. Particulars: MTT assay after 24 h of incubation, read-out: IC50 ± SD, T98G. The format is cell-based, human. Here is the method: as §1
(Tetrazolium assays rely on reduction of a dye to a coloured formazan, in cell work by metabolically active cells.)

The subject of the next assay is SK-N-AS cells. The assay is described as follows: MTT cytotoxicity assay, neuroblastoma SK-N-AS. Particulars: MTT assay after 24 h of incubation, read-out: IC50 ± SD, SK-N-AS. The format is cell-based, human. On the procedure: as §1
The subject of a further assay is C. glabrata ATCC 2091. The experiment in a line: MIC, micro-dilution broth method. In kind it is cell-based. Here is the method: as §1
Another assay concerns B. subtilis ATCC 6633. The assay is described as follows: MIC, micro-dilution broth method. In kind it is cell-based, Bacillus subtilis. Particulars: for MIC: Bacillus subtilis. On the procedure: as §1
In assay [1] the test system is S. typhimurium ATCC 14028. The assay is described as follows: MIC, micro-dilution broth method. Particulars: Gram-negative bacteria. The format is cell-based, Salmonella Typhimurium. On the procedure:
as §1

In assay [2] the test system is C. parapsilosis ATCC 22019. The assay is described as follows: MIC, micro-dilution broth method. The format is cell-based, Candida parapsilosis. Particulars: Yeasts, micro-dilution broth with 2% glucose. Here is the method:
as §1

A further assay relates to K. pneumoniae ATCC 13883. The assay is described as follows: MIC, micro-dilution broth method. The format is cell-based, Klebsiella pneumoniae. Here is the method:
as §1

The subject of another assay is M. luteus ATCC 10240. The experiment in a line: MIC, micro-dilution broth method. In kind it is cell-based, Micrococcus luteus. Particulars: for MIC: Micrococcus luteus. Here is the method: as §1
In another assay the test system is S. aureus ATCC 25923. The assay is described as follows: MIC, micro-dilution broth method. The format is cell-based, Staphylococcus aureus. Particulars: for MIC: Staphylococcus aureus. Here is the method:
as §1

The test system of assay [3] is S. epidermidis ATCC 12228. The experiment in a line: MIC, micro-dilution broth method. The format is cell-based, Staphylococcus epidermidis. Particulars: for MIC: Staphylococcus epidermidis. Here is the method: as §1
The subject of another assay is E. faecalis ATCC 29212. The experiment in a line: MIC, micro-dilution broth method. In kind it is cell-based, Enterococcus faecalis. Particulars: for MIC: Enterococcus faecalis. On the procedure: as §1
Another assay concerns B. cereus ATCC 10876. The experiment in a line: MIC, micro-dilution broth method. The format is cell-based, Bacillus cereus. Particulars: for MIC: Bacillus cereus. Here is the method: as §1
The test system of another assay is A549 cells. The experiment in a line: MTT cytotoxicity assay, lung adenocarcinoma A549. Particulars: lung carcinoma A549, MTT assay after 24 h of incubation, read-out: IC50 ± SD, A549. In kind it is cell-based, human. On the procedure:
as §1

For the next assay, the system named is C. albicans ATCC 102231. The experiment in a line: MIC, micro-dilution broth method. In kind it is cell-based, Candida albicans. Here is the method:
as §1

The subject of a further assay is CCD-1059Sk cells. The experiment in a line: MTT cytotoxicity assay, normal human skin fibroblasts CCD-1059Sk. In kind it is cell-based. Particulars: normal human fibroblasts CCD-1059Sk, MTT assay after 24 h of incubation; read-out: IC50 ± SD, CCD-1059-Sk. On the procedure: as §1
Setting [4] is: Yeasts, micro-dilution broth with 2% glucose.
Where [5] appears, read: Gram-positive bacteria, micro-dilution broth.

Converted amounts (≈) assume the structure as drawn. Read-outs that look alike come from different tables or passages of the source.

For the compound `O.O.[Cl][Cd][Cl].c1cncc(-c2nc3cccnc3[nH]2)c1` [C3, Cd(L3)Cl2∙2H2O], the “MIC, P. mirabilis ATCC 12453” value against P. mirabilis ATCC 12453 (Gram-negative bacteria) was 31.3 µg/mL. Besides, in the assay on E. coli ATCC 25922 (Gram-negative bacteria), the “MIC, E. coli ATCC 25922” value is 125 µg/mL. Further, the “MIC, P. aeruginosa ATCC 9027” value against P. aeruginosa ATCC 9027 (Gram-negative bacteria) turned out to be 125 µg/mL. Also, the IC50 in the assay with T98G cells was found to be 55.7 ± 2.5 µM; in the assay with SK-N-AS cells, 34.5 ± 0.41 µM; in the assay with A549 cells, 47.2 ± 2.1 µM; with CCD-1059Sk cells it was 40.4 ± 0.41 µM. Further, the “MIC, C. glabrata ATCC 2091” value in the assay with C. glabrata ATCC 2091 (setting [4]) turned out to be 31.3 µg/mL. The “MIC, B. subtilis ATCC 6633” value against B. subtilis ATCC 6633 (setting [5]) turned out to be 7.8 µg/mL. The “MIC, S. typhimurium ATCC 14028” value in assay [1] came out at 125 µg/mL. Further, the “MIC, C. parapsilosis ATCC 22019” value in assay [2] is 15.6 µg/mL. In the assay with K. pneumoniae ATCC 13883 (Gram-negative bacteria), the “MIC, K. pneumoniae ATCC 13883” value was 250 µg/mL. Further, in the assay on M. luteus ATCC 10240 (setting [5]), the “MIC, M. luteus ATCC 10240” value came out at 7.8 µg/mL. Also, the “MIC, S. aureus ATCC 25923” value against S. aureus ATCC 25923 (setting [5]) amounted to 1000 µg/mL. Besides, in assay [3] (setting [5]), the “MIC, S. epidermidis ATCC 12228” value worked out at 1000 µg/mL. Besides, the “MIC, E. faecalis ATCC 29212” value against E. faecalis ATCC 29212 (setting [5]) is more than 1000 µg/mL. Further, in the assay on B. cereus ATCC 10876 (setting [5]), the “MIC, B. cereus ATCC 10876” value was more than 1000 µg/mL. Besides, the “MIC, C. albicans ATCC 102231” value against C. albicans ATCC 102231 (setting [4]) was found to be 125 µg/mL.

Consider `CN[C@H](CC(C)C)C(=O)N[C@H]1C(=O)N[C@@H](CC(N)=O)C(=O)N[C@H]2C(=O)N[C@H]3C(=O)N[C@H](C(=O)N[C@H](C(=O)O)c4cc(O)cc(O)c4-c4cc3ccc4O)[C@H](O)c3ccc(c(Cl)c3)Oc3cc2cc(c3O[C@@H]2O[C@H](CO)[C@@H](O)[C@H](O)[C@H]2O[C@H]2C[C@](C)(N)[C@H](O)[C@H](C)O2)Oc2ccc(cc2Cl)[C@H]1O` [Van, Vancomycin, reference compound], for which the MIC with B. subtilis ATCC 6633 (ATCC6633, read-out: MIC, B. subtilis ATCC 6633) worked out at 0.24 µg/mL (≈ 0.000166 mM); in the assay on M. luteus ATCC 10240 (ATCC10240, read-out: MIC, M. luteus ATCC 10240), 0.12 µg/mL (≈ 8.28e-05 mM); with S. aureus ATCC 25923 (ATCC25923, read-out: MIC, S. aureus ATCC 25923), 0.98 µg/mL (≈ 0.000676 mM); in [3] (ATCC12228, read-out: MIC, S. epidermidis ATCC 12228), 0.98 µg/mL (≈ 0.000676 mM); in the assay with E. faecalis ATCC 29212 (ATCC29212, read-out: MIC, E. faecalis ATCC 29212), 1.95 µg/mL (≈ 0.00135 mM); with B. cereus ATCC 10876 (ATCC10876, read-out: MIC, B. cereus ATCC 10876) it was 0.98 µg/mL (≈ 0.000676 mM).

With `Brc1cnc2[nH]c(-c3cccnc3)nc2c1` [L4], the MIC with P. mirabilis ATCC 12453 (Proteus mirabilis, ATCC12453, Gram-negative bacteria) is more than 1000 µg/mL; in the assay with E. coli ATCC 25922 (Escherichia coli, ATCC25922, Gram-negative bacteria), more than 1000 µg/mL; against P. aeruginosa ATCC 9027 (Pseudomonas aeruginosa, ATCC9027, Gram-negative bacteria), more than 1000 µg/mL; in the assay with C. glabrata ATCC 2091 (Nakaseomyces glabratus, ATCC2091, read-out: MIC, C. glabrata ATCC 2091), more than 1000 µg/mL; in the assay with B. subtilis ATCC 6633 (ATCC6633, Gram-positive bacteria, micro-dilution broth, read-out: MIC, B. subtilis ATCC 6633) it was 1000 µg/mL (≈ 3.63 mM); in assay [1] (Salmonella enterica) it was more than 1000 µg/mL. Moreover, the MIC in [2] (Lodderomyces parapsilosis, ATCC22019) is 1000 µg/mL (≈ 3.63 mM); with K. pneumoniae ATCC 13883 (Klebsiella pneumoniae, ATCC13883, Gram-negative bacteria), more than 1000 µg/mL; in the assay with M. luteus ATCC 10240 (ATCC10240, Gram-positive bacteria, micro-dilution broth, read-out: MIC, M. luteus ATCC 10240), more than 1000 µg/mL; in the assay on S. aureus ATCC 25923 (ATCC25923, Gram-positive bacteria, micro-dilution broth, read-out: MIC, S. aureus ATCC 25923), more than 1000 µg/mL; in assay [3] (ATCC12228, Gram-positive bacteria, micro-dilution broth, read-out: MIC, S. epidermidis ATCC 12228) it was 1000 µg/mL (≈ 3.63 mM); in the assay with E. faecalis ATCC 29212 (ATCC29212, Gram-positive bacteria, micro-dilution broth, read-out: MIC, E. faecalis ATCC 29212) it was 1000 µg/mL (≈ 3.63 mM). Besides, the MIC was 1000 µg/mL (≈ 3.63 mM) in the assay on B. cereus ATCC 10876 (ATCC10876, Gram-positive bacteria, micro-dilution broth, read-out: MIC, B. cereus ATCC 10876) and 500 µg/mL (≈ 1.82 mM) in the assay with C. albicans ATCC 102231 (Candida albicans, ATCC102231, read-out: MIC, C. albicans ATCC 102231). For the same compound, the half-maximal inhibitory concentration (IC50) is more than 362 µM with T98G cells (Homo sapiens); more than 362 µM with SK-N-AS cells (Homo sapiens, SK-N-AS, 24 h); more than 362 µM with A549 cells (Homo sapiens); more than 362 µM in the assay with CCD-1059Sk cells.

For the origin of these results see PMC9412362, “Design, Synthesis, and Characterization of Novel Coordination Compounds of Benzimidazole Derivatives with Cadmium” (Pharmaceutics, 2022).
